Patent publication US20170147742A1 (priority 2014, published 2017)

What was measured:
[1] = biological target: E. coli RNA polymerase (Escherichia coli, UniProt P0A8V2); details: used in simulations, reference (44); read-out: inhibitory potency KI; cited from earlier work
[2] = system: wild-type E. coli Top10; test: Growth rate of wild-type E. coli Top10 with transcription and translation inhibitors (microplate OD600); type: cell-based, Escherichia coli
Method: Seed cultures were grown in LB medium supplemented with 30 μg/ml kanamycin from freshly transformed plates and after 10 to 12 h of overnight growth, pre-cultures were inoculated in fresh LB medium at a dilution of 100× for 2 to 3 h exponential growth (OD600=0.7−1). For characterization of the promoters in the vector pBbE8K, cell cultures were grown in 5 mL of pre-warmed LB medium at 37° C. in 50 mL test tubes, shaken at 225 rpm. The culture tubes were kept in ice for about 5 min to stop further growth and were pelleted by centrifugation for 2 min at 3300 g in 4° C., washed and diluted to OD600=0.1 by resuspension in pre-warmed supplemented minimal media with different glucose concentrations ranging from 20 mM to 0.1 mM. Cultures were then […] into transparent, flat-bottom 96-well plate in triplicate aliquots of […]. The plate was incubated in 37° C. with shaking for 8 min and growth rates were monitored by measuring absorbance at 600 nm and fluorescence were monitored by measuring RFP at excitation 535 nm and emission 600 nm using Synergy HT microplate reader (Biotek) over time. Time series OD600 and RFP data were collected for every 10 min for a total run time of 6 h.
[…] The cells were subjected to a microplate assay to measure their OD600 for 6 h. Three biological replicates were used for all of the experiments conducted.
For each promoter, the three OD600 and RFP data were averaged and background absorbance (wells containing only media) and fluorescence (Top10—E8K)) were subtracted from the raw measurements to obtain OD600 and RFP time series. Measurements were obtained in mid-exponential growth and growth rates were calculated as a time derivative of the OD curves, μ=d ln(OD)/dt. The activity of the promoters (RFP synthesis rate per cell) were calculated by, d(RFP)/dt/OD600. Relative promoter units of every promoter studied were calculated by, […]

[3] = system: E. coli containing the lasQS device; test: Growth rate of E. coli containing the lasQS inducible device exposed to AHL (microplate OD600); type: cell-based, Escherichia coli; details: glucose 20 mM
Method: For characterizations of inducible system (lasQS device) in the vector pBbE8K, cells were first grown to stationary phase overnight in LB medium before being diluted 100× into fresh LB medium. The diluted cells were grown to exponential phase (OD600=1), washed and resuspended in supplemented minimal media with varying glucose concentration (20-0.1 mM) as mentioned earlier. Before being subjected to the microplate fluorescence assay, N-(3-Oxododecanoyl)-L-homoserine lactone (3-Oxo-C12-HSL, Sigma-Aldrich) was added to the pre-culture (Top10—pTetR-LasR-pLuxR-RFP) at varying molar concentrations of 10^−7-10^−9 M. The cell cultures were measured for their OD600 and RFP fluorescence for 6 h.
For each promoter, the three OD600 and RFP data were averaged and background absorbance (wells containing only media) and fluorescence (Top10—E8K)) were subtracted from the raw measurements to obtain OD600 and RFP time series. Measurements were obtained in mid-exponential growth and growth rates were calculated as a time derivative of the OD curves, μ=d ln(OD)/dt. The activity of the promoters (RFP synthesis rate per cell) were calculated by, d(RFP)/dt/OD600. Relative promoter units of every promoter studied were calculated by,
The lasQS device used in this study comprised three key components (FIG. 5(A)): the AHL synthetase LasI, the transcription factor LasR, and the lasI promoter. LasI produces the signaling molecule 3-O—C12-HSL (or AHL), and the LasR-AHL complex activates the lasI promoter. First, to examine the characteristics of the lasQS device, we constitutively expressed LasR using a sigma-70 promoter J23105, derived from the BioBrick parts registry (www.partsregistry.org/Part:pSB1K3). The activity of the device was indicated by red fluorescence protein (RFP), which was placed under the control of the lasI promoter. E. coli containing the lasQS device was exogenously exposed to AHL concentrations ranging from 10^−9 M to 10^−7 M and varying glucose concentrations.

Chain of E. coli RNA polymerase (P0A8V2 whole entry): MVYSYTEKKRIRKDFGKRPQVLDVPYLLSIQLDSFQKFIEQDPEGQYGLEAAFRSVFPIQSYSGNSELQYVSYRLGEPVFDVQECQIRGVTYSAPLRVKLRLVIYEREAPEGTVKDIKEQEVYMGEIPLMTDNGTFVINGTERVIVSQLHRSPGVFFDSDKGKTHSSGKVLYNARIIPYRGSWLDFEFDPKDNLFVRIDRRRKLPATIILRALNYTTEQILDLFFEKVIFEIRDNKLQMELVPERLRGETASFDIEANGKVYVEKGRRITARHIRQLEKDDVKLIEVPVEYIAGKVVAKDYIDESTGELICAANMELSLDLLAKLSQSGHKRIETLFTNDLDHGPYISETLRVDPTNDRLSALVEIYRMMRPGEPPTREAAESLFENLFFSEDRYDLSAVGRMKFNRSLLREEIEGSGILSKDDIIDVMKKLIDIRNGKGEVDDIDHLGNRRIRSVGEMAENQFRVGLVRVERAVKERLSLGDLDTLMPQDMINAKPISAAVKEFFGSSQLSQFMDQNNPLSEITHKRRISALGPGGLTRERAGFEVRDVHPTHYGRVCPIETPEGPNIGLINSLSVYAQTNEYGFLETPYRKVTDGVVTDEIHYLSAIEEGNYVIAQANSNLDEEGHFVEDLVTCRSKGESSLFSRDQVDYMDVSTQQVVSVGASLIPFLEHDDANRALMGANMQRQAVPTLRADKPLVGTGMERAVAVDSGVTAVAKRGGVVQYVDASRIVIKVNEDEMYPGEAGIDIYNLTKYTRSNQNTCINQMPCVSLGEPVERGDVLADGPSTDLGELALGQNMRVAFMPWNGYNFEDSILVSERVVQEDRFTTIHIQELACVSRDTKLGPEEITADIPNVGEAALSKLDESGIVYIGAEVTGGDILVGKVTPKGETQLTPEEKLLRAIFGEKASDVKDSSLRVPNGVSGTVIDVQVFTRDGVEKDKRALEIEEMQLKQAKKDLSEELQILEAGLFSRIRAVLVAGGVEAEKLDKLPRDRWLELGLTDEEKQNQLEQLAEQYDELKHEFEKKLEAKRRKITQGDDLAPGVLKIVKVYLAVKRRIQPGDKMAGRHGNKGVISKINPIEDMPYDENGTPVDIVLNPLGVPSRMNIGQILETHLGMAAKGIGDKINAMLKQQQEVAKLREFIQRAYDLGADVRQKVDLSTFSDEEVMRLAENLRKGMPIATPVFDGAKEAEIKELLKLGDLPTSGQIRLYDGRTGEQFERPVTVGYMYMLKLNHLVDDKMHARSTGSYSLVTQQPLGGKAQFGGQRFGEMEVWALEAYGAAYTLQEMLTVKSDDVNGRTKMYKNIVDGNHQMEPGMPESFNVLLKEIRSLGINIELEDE
Chain of E. coli RNA polymerase (P0A8T7 whole entry partner): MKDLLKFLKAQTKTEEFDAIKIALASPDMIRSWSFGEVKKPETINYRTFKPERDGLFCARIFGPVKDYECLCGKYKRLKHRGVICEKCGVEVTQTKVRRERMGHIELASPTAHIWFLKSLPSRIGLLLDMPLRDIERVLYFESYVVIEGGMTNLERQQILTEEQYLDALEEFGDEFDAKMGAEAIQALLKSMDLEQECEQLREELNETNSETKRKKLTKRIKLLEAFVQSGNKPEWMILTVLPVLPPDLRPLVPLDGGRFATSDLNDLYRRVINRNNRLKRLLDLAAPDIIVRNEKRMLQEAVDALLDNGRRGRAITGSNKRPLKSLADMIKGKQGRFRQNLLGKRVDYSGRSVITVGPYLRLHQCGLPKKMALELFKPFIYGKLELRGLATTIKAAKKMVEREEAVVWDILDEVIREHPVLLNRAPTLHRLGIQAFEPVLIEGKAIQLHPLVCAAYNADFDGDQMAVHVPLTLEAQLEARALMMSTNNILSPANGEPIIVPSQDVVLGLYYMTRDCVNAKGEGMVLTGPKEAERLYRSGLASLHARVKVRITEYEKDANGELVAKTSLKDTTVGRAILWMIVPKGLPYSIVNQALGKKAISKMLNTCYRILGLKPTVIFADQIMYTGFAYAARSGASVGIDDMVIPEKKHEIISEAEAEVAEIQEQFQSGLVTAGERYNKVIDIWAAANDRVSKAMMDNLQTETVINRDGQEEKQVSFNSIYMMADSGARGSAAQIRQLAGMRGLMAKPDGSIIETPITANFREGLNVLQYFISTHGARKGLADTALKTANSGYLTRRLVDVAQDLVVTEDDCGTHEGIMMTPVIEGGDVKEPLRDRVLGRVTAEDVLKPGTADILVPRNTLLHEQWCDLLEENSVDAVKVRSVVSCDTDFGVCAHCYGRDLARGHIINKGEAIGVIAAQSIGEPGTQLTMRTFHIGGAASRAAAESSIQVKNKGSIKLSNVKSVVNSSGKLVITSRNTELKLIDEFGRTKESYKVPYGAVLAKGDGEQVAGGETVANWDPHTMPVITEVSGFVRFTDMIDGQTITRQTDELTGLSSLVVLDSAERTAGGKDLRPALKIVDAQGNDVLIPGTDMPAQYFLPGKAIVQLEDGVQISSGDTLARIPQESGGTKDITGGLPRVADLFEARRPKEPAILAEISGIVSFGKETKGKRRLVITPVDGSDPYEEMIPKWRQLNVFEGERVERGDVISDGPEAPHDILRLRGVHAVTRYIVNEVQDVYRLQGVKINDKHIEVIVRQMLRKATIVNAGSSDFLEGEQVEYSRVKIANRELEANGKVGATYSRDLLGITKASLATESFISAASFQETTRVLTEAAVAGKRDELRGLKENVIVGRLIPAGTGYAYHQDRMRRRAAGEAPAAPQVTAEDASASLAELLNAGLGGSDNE
Chain of E. coli RNA polymerase (P0A7Z4 whole entry partner): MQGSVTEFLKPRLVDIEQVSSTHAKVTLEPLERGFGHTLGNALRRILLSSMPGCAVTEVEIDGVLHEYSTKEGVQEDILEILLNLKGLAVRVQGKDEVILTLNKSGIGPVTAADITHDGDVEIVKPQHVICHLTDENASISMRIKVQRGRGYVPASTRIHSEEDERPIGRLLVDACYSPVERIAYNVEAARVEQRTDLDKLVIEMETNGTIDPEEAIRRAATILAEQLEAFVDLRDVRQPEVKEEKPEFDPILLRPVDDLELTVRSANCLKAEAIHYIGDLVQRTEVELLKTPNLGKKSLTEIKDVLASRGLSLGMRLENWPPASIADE
Chain of E. coli RNA polymerase (P0A800 whole entry partner): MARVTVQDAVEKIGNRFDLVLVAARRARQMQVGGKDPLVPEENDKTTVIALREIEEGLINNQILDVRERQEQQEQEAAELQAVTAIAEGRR

CO[C@H]1/C=C/O[C@@]2(C)Oc3c(C)c(O)c4c(O)c(c(/C=N/N5CCN(C)CC5)c(O)c4c3C2=O)NC(=O)/C(C)=C\C=C\[C@H](C)[C@H](O)[C@@H](C)[C@@H](O)[C@@H](C)[C@H](OC(C)=O)[C@@H]1C [rifampicin]
Ki [1]: 1 nM
growth rate ([2]; rifampicin 6 μM, maximum glucose concentration): 0.79 doublings per hour
growth rate ([2]; rifampicin 8 μM, maximum glucose concentration): 0.68 doublings per hour
growth rate ([2]; rifampicin 10 μM, maximum glucose concentration, M9 supplemented media): 0.55 doubling per hour

CCCCCCCCCC(=O)CC(=O)N[C@H]1CCOC1=O [AHL, N-(3-Oxododecanoyl)-L-homoserine lactone]
reduction in growth rate ([3]; AHL 10^−7 M): 23%
reduction in growth rate ([3]; AHL 10^−8 M): 13%
reduction in growth rate ([3]; AHL 10^−9M): 7%

CN(C)[C@@H]1C(O)=C(C(N)=O)C(=O)[C@@]2(O)C(O)=C3C(=O)c4c(O)cccc4[C@@](C)(O)[C@H]3C[C@@H]12 [tetracycline]
growth rate ([2]; tetracycline 4 μM): 0.19 doublings per hour
growth rate ([2]; tetracycline concentration of 1): 0.66 doublings per hour
growth rate ([2]; tetracycline concentration of 2): 0.38 doublings per hour
